In brackets after ≈: the same amount, converted by molar mass.
Legend:
Type in all cases: functional
Human alphaherpesvirus 1 [1] = test: Minimum inhibitory concentration causing 25% inhibition of cytopathic effect induced by Herpes simplex virus-1 (K979) in HEp-2 cells
Human alphaherpesvirus 1 [2] = test: Minimum inhibitory concentration causing 25% inhibition of cytopathic effect induced by Herpes simplex virus(HSV) -1 (thymidine kinase deficient) in vero cells
Oryctolagus cuniculus [3] = species: Oryctolagus cuniculus; test: Minimum cytotoxic concentration causing toxic effects on uninfected cells in rabbit
Human alphaherpesvirus 2 [4] = test: Minimum inhibitory concentration causing 25% inhibition cytopathic effect induced by Herpes simplex virus(HSV) -2 (thymidine kinase deficient) in vero cells
Human alphaherpesvirus 1 [5] = test: Minimum inhibitory concentration causing 25% inhibition cytopathic effect induced by Herpes simplex virus-1 (Brand) in HEp-2 cells
Human alphaherpesvirus 2 [6] = test: Minimum inhibitory concentration causing 25% inhibition of cytopathic effect induced by Herpes simplex virus(HSV) -2 (thymidine kinase deficient) in HEp-2 cells
Human alphaherpesvirus 1 [7] = test: Minimum inhibitory concentration causing 25% inhibition of cytopathic effect induced by Herpes simplex virus-1 (Brand) in vero cells
Human alphaherpesvirus 1 [8] = test: Minimum inhibitory concentration causing 25% inhibition of cytopathic effect induced by herpes simplex virus (HSV)-1 (K979) in vero cells.
Human alphaherpesvirus 1 [9] = test: Minimum inhibitory concentration causing 25% inhibition cytopathic effect induced by Herpes simplex virus(HSV) -1 (thymidine kinase deficient) in HEp-2 cells
Human alphaherpesvirus 1 [10] = test: Minimum inhibitory concentration causing 25% inhibition of cytopathic effect induced by Herpes simplex virus(HSV) -1 (thymidine kinase deficient) in HEp-2 cells
Human alphaherpesvirus 1 [11] = test: Mean survival time in HSV-1 infected mice, after peroral administration of 1 mg/kg of compound; details: route oral
Human alphaherpesvirus 1 [12] = test: Cumulative mortality in percent of HSV-1 infected mice, after intraperitoneal administration of 5 mg/kg of compound
Human alphaherpesvirus 1 [13] = test: Mean survival time in HSV-1 infected mice, after intraperitoneal administration of 1 mg/kg of compound
Human alphaherpesvirus 1 [14] = test: Mean survival time in HSV-1 infected mice, after intraperitoneal administration of 0.5 mg/kg of compound
Mus musculus [15] = test: Mean duration of lesions in HSV-1 infected mice, after administration of 0.3 % of compound intracutaneously
Mus musculus [16] = test: Cumulative lesions in HSV-1 infected mice, after administration of 0.3 % of compound intracutaneously
Human alphaherpesvirus 1 [17] = test: Mean survival time in HSV-1 infected mice, after intraperitoneal administration of 5 mg/kg of compound
Human alphaherpesvirus 1 [18] = test: Cumulative mortality in percent of HSV-1 infected mice, after peroral administration of 1 mg/kg of compound; details: route oral
Human alphaherpesvirus 2 [19] = test: Minimum inhibitory concentration causing 25% inhibition of cytopathic effect induced by Herpes simplex virus(HSV) -2 (thymidine kinase deficient) in vero cells
Human alphaherpesvirus 1 [20] = test: Mean survival time in HSV-1 infected mice, after peroral administration of 10 mg/kg of compound; details: route oral
Human alphaherpesvirus 1 [21] = test: Cumulative mortality in percent of HSV-1 infected mice, after peroral administration of 5 mg/kg of compound; details: route oral
Human alphaherpesvirus 1 [22] = test: Mean survival time in HSV-1 infected mice, after peroral administration of 5 mg/kg of compound; details: route oral
Human alphaherpesvirus 1 [23] = test: Cumulative mortality in percent of HSV-1 infected mice, after intraperitoneal administration of 0.5 mg/kg of compound
Human alphaherpesvirus 1 [24] = test: Cumulative mortality in percent of HSV-1 infected mice, after peroral administration of 10 mg/kg of compound; details: route oral
Human alphaherpesvirus 1 [25] = test: Cumulative mortality in percent of HSV-1 infected mice, after intraperitoneal administration of 1 mg/kg of compound
Mus musculus [26] = test: Cumulative mortality in percent of HSV-1 (KOS strain) infected mice, after peroral administration of 100 mg/kg of compound; details: route oral
Human alphaherpesvirus 2 [27] = test: Minimum inhibitory concentration causing 50% inhibition of cytopathic effect induced by HSV-2 in PRK cells
Human alphaherpesvirus 1 [28] = test: Minimum inhibitory concentration causing 50% inhibition of cytopathic effect induced by HSV-1 (thymidine kinase deficient) in PRK cells
Human alphaherpesvirus 1 [29] = test: Minimum inhibitory concentration causing 50% inhibition of cytopathic effect induced by HSV-1 in PRK cells
Mus musculus [30] = test: Mean duration of lesions in HSV-1 infected mice, after administration of 0.1 % of compound intracutaneously
Mus musculus [31] = test: Cumulative lesions in HSV-1 infected mice, after administration of 0.1 % of compound intracutaneously
Oryctolagus cuniculus [32] = species: Oryctolagus cuniculus; test: Minimum cytotoxic concentration of compound causing toxic effects on uninfected cells
Human alphaherpesvirus 2 [33] = test: Minimum inhibitory concentration causing 25% inhibition cytopathic effect induced by Herpes simplex virus(HSV) -2 (thymidine kinase deficient) in HEp -2 cells
Mus musculus [34] = test: Cumulative mortality in percent of HSV-1 infected mice, after peroral administration of 100 mg/kg of compound; details: route oral
Human alphaherpesvirus 1 [35] = test: Minimum inhibitory concentration causing 50% inhibition of cytopathic effect induced by HSV-1(thymidine kinase deficient) in PRK cells
Human alphaherpesvirus 2 [36] = test: Minimum inhibitory concentration of compound causing 50% inhibition of cytopathic effect induced by HSV-2 in PRK cells
Human alphaherpesvirus 1 [37] = test: Minimum inhibitory concentration of compound causing 50% inhibition of cytopathic effect induced by HSV-1 (thymidine kinase deficient) in PRK cells
Human alphaherpesvirus 1 [38] = test: Minimum inhibitory concentration of compound causing 50% inhibition of cytopathic effect induced by HSV-1 in PRK cells

Compound CCOC(=O)P(=O)(OC)OC[C@H]1O[C@@H](n2cc(I)c(=O)[nH]c2=O)C[C@@H]1O (some centres not stated) has an MIC (Human alphaherpesvirus 1 [1]) of 5.9 µM (≈ 2.97 µg/mL), an MIC (Human alphaherpesvirus 1 [2]) of 19.8 µM (≈ 9.98 µg/mL) and an MTC (Oryctolagus cuniculus [3]) of 198 µM. The MIC (Human alphaherpesvirus 2 [4]) was 5.9 µM (≈ 2.97 µg/mL), the MIC (Human alphaherpesvirus 1 [5]) was 2 µM (≈ 1.01 µg/mL) and the MIC (Human alphaherpesvirus 2 [6]) was 5.9 µM (≈ 2.97 µg/mL). For the same compound, the MIC (Human alphaherpesvirus 1 [7]) was 0.6 µM (≈ 0.303 µg/mL), the MIC (Human alphaherpesvirus 1 [8]) was 5.9 µM (≈ 2.97 µg/mL) and the MIC (Human alphaherpesvirus 1 [9]) was 2 µM (≈ 1.01 µg/mL).
O=C(CP(=O)(O)O)OC[C@H]1O[C@@H](n2cc(CCCl)c(=O)[nH]c2=O)C[C@@H]1O showed an MIC (Human alphaherpesvirus 1 [10]) of 242 µM (≈ 99.9 µg/mL), an MST (Human alphaherpesvirus 1 [11]) of 11.8 days and a CMP (Human alphaherpesvirus 1 [12]) of 17. It also gave an MIC (Human alphaherpesvirus 1 [1]) of over 242 µM, an MST (Human alphaherpesvirus 1 [13]) of 16 days and an MST (Human alphaherpesvirus 1 [14]) of 12.2 days. The MIC (Human alphaherpesvirus 1 [2]) was 72.7 µM (≈ 30 µg/mL), the MDL (Mus musculus [15]) was 2.4 days and the MTC (Oryctolagus cuniculus [3]) was 800 µM. It also gave a lesions (Mus musculus [16]) of 40, an MIC (Human alphaherpesvirus 1 [5]) of 24.2 µM (≈ 9.99 µg/mL) and an MST (Human alphaherpesvirus 1 [17]) of 18.3 days. It also gave a CMP (Human alphaherpesvirus 1 [18]) of 67, an MIC (Human alphaherpesvirus 2 [19]) of 72.7 µM (≈ 30 µg/mL) and an MIC (Human alphaherpesvirus 2 [6]) of 242 µM (≈ 99.9 µg/mL). It also gave an MST (Human alphaherpesvirus 1 [20]) of 16.3 days, a CMP (Human alphaherpesvirus 1 [21]) of 50 and an MIC (Human alphaherpesvirus 1 [7]) of 24.2 µM (≈ 9.99 µg/mL). It also gave an MIC (Human alphaherpesvirus 1 [8]) of over 242 µM, an MST (Human alphaherpesvirus 1 [22]) of 15.3 days and a CMP (Human alphaherpesvirus 1 [23]) of 75. The CMP (Human alphaherpesvirus 1 [24]) was 42 and the CMP (Human alphaherpesvirus 1 [25]) was 33.
Work on COC(=O)P(=O)(O)OC[C@H]1O[C@@H](n2cc(/C=C\Br)c(=O)[nH]c2=O)C[C@@H]1O yielded a CMP (Mus musculus [26]) of 50, an MIC (Human alphaherpesvirus 2 [27]) of over 87.9 µM and an MIC (Human alphaherpesvirus 1 [28]) of over 87.9 µM. For the same compound, the MTC (Oryctolagus cuniculus [3]) was “>=87.9 uM” and the MIC (Human alphaherpesvirus 1 [29]) was 1.5 µM (≈ 0.683 µg/mL).
Work on CCOC(=O)P(=O)(OC)OC[C@H]1O[C@@H](n2cc(CCCl)c(=O)[nH]c2=O)C[C@@H]1O (some centres not stated) yielded an MIC (Human alphaherpesvirus 1 [10]) of over 227 µM, an MST (Human alphaherpesvirus 1 [11]) of 13.9 days and a CMP (Human alphaherpesvirus 1 [12]) of 0. For the same compound, the MIC (Human alphaherpesvirus 1 [1]) was 22.7 µM (≈ 10 µg/mL), the MST (Human alphaherpesvirus 1 [13]) was 15.6 days and the MST (Human alphaherpesvirus 1 [14]) was 16.7 days. It also gave an MIC (Human alphaherpesvirus 1 [2]) of 68.1 µM (≈ 30 µg/mL), an MDL (Mus musculus [15]) of 1.4 days and an MTC (Oryctolagus cuniculus [3]) of 749 µM. For the same compound, the MDL (Mus musculus [30]) was 3.3 days, the lesions (Mus musculus [16]) was 17 and the MIC (Human alphaherpesvirus 1 [5]) was 0.7 µM (≈ 0.309 µg/mL). For the same compound, the MST (Human alphaherpesvirus 1 [17]) was 20 days, the CMP (Human alphaherpesvirus 1 [18]) was 63 and the MIC (Human alphaherpesvirus 2 [19]) was over 227 µM. For the same compound, the MIC (Human alphaherpesvirus 2 [6]) was over 227 µM, the MST (Human alphaherpesvirus 1 [20]) was 18.9 days and the CMP (Human alphaherpesvirus 1 [21]) was 38. The MIC (Human alphaherpesvirus 1 [7]) was 0.7 µM (≈ 0.309 µg/mL), the MIC (Human alphaherpesvirus 1 [8]) was 227 µM (≈ 100 µg/mL) and the MST (Human alphaherpesvirus 1 [22]) was 16 days. The CMP (Human alphaherpesvirus 1 [23]) was 33, the CMP (Human alphaherpesvirus 1 [24]) was 13 and the lesions (Mus musculus [31]) was 33. For the same compound, the CMP (Human alphaherpesvirus 1 [25]) was 42.
For O=C(O)P(=O)(O)O [FOSCARNET], the MIC (Human alphaherpesvirus 1 [10]) was 794 µM (≈ 100 µg/mL), the MIC (Human alphaherpesvirus 2 [27]) was 159 µM (≈ 20 µg/mL) and the MIC (Human alphaherpesvirus 1 [28]) was 317 µM (≈ 39.9 µg/mL). The MIC (Human alphaherpesvirus 1 [1]) was 238 µM (≈ 30 µg/mL), the MIC (Human alphaherpesvirus 1 [2]) was 79.4 µM (≈ 10 µg/mL) and the MTC (Oryctolagus cuniculus [32]) was over 3174 µM. For the same compound, the MTC (Oryctolagus cuniculus [3]) was 2.619 µM, the MIC (Human alphaherpesvirus 2 [33]) was 238 µM (≈ 30 µg/mL) and the MIC (Human alphaherpesvirus 1 [29]) was 238 µM (≈ 30 µg/mL). The MIC (Human alphaherpesvirus 1 [5]) was 794 µM (≈ 100 µg/mL), the MIC (Human alphaherpesvirus 2 [19]) was 79.4 µM (≈ 10 µg/mL) and the MIC (Human alphaherpesvirus 1 [7]) was 238 µM (≈ 30 µg/mL). The MIC (Human alphaherpesvirus 1 [8]) was 238 µM (≈ 30 µg/mL).
Work on CCOC(=O)CP(=O)(OC)OC[C@H]1O[C@@H](n2cc(I)c(=O)[nH]c2=O)C[C@@H]1O (some centres not stated) yielded an MIC (Human alphaherpesvirus 1 [1]) of 57.9 µM (≈ 30 µg/mL), an MIC (Human alphaherpesvirus 1 [2]) of 57.9 µM (≈ 30 µg/mL) and an MTC (Oryctolagus cuniculus [3]) of 193 µM. The MIC (Human alphaherpesvirus 2 [4]) was over 193 µM, the MIC (Human alphaherpesvirus 1 [5]) was 5.8 µM (≈ 3.01 µg/mL) and the MIC (Human alphaherpesvirus 2 [6]) was 193 µM (≈ 100 µg/mL). It also gave an MIC (Human alphaherpesvirus 1 [7]) of 1.9 µM (≈ 0.985 µg/mL), an MIC (Human alphaherpesvirus 1 [8]) of 57.9 µM (≈ 30 µg/mL) and an MIC (Human alphaherpesvirus 1 [9]) of 1.9 µM (≈ 0.985 µg/mL).
With CCOC(=O)P(=O)(O)OC[C@H]1O[C@@H](n2cc(/C=C\Br)c(=O)[nH]c2=O)C[C@@H]1O the MIC (Human alphaherpesvirus 2 [27]) was over 81.1 µM, the CMP (Mus musculus [34]) was 70 and the MIC (Human alphaherpesvirus 1 [35]) was over 81.1 µM. The MTC (Oryctolagus cuniculus [3]) was “>=81.1 uM” and the MIC (Human alphaherpesvirus 1 [29]) was 4.1 µM (≈ 1.92 µg/mL).
Compound O=C(O)CP(=O)(O)O [FOSFONET] has an MIC (Human alphaherpesvirus 1 [10]) of 214 µM (≈ 30 µg/mL), an MIC (Human alphaherpesvirus 1 [1]) of 71.4 µM (≈ 10 µg/mL) and an MIC (Human alphaherpesvirus 2 [36]) of 143 µM (≈ 20 µg/mL). The MIC (Human alphaherpesvirus 1 [2]) was 71.4 µM (≈ 10 µg/mL), the MTC (Oryctolagus cuniculus [32]) was over 2856 µM and the MTC (Oryctolagus cuniculus [3]) was 2.356 µM. For the same compound, the MIC (Human alphaherpesvirus 1 [5]) was 214 µM (≈ 30 µg/mL), the MIC (Human alphaherpesvirus 2 [19]) was 71.4 µM (≈ 10 µg/mL) and the MIC (Human alphaherpesvirus 2 [6]) was 214 µM (≈ 30 µg/mL). It also gave an MIC (Human alphaherpesvirus 1 [37]) of 286 µM (≈ 40 µg/mL), an MIC (Human alphaherpesvirus 1 [38]) of 286 µM (≈ 40 µg/mL) and an MIC (Human alphaherpesvirus 1 [7]) of 71.4 µM (≈ 10 µg/mL). It also gave an MIC (Human alphaherpesvirus 1 [8]) of 71.4 µM (≈ 10 µg/mL).

Source: ChEMBL document CHEMBL1124209, “Phosphonoformate and phosphonoacetate derivatives of 5-substituted 2'-deoxyuridines: synthesis and antiviral activity” (1988)
